Measurements: patent publication US20240261296A1, “THERAPEUTIC MODALITIES FOR INHIBITING PANCREATIC BETA CELL IMPAIRMENT AND TREATING DIABETES” (Hadasit Medical Research Serices & Development Ltd., priority 2021, published 2024)
Entries after “also recorded” stand apart in the source; their conditions may differ.

Experiments:
Format in all cases: in vivo
[1] = liver function parameters in sera of C57Bl/6 mice
Experimental: Blood was collected by cardiac puncture, and 50 μl were collected in EDTA containing tubes for cell blood count (CBC). Further, 200-300 μl of blood was centrifuged and serum was collected for biochemical analysis. C. Effects of orally administered compounds on liver function parameters: The blood levels of albumin, the liver aspartate transaminase (AST) and alanine transaminase (ALT) were measured in the sera obtained from mice 24 h after the third gavage with saline/DMSO (Control Saline); 3 mg/kg/day Compound C5; Compound C13 or the EP3 antagonist L-798106. Results are presented in FIG. 11A for Albumin, FIG. 11B for AST, and FIG. 11C for ALT. […] All p-values >0.05. C. Liver function parameters: Blood levels of albumin (FIG. 14A), liver transaminases: aspartate transaminase (AST, FIG. 14B) and alanine transaminase (ALT, FIG. 14C), as well as bilirubin, were measured in sera obtained from mice 24 h after injection of either Saline/DMSO (Control Saline); C5; C13 or L-798106. […] Typically, this biomarker levels rise with liver injury and help monitor function under drugs treatment. Here a decrease in the levels of ALT in the serum of L-798106- and C13-treated mice, is not considered to indicate liver damage. Bilirubin<1 μM was measured in all test groups.

[2] = kidney function parameters in sera of C57Bl/6 mice
Experimental: Blood was collected by cardiac puncture, and 50 μl were collected in EDTA containing tubes for cell blood count (CBC). Further, 200-300 μl of blood was centrifuged and serum was collected for biochemical analysis.
D. Effects of orally administered compounds on kidney function parameters: Creatinine and Urea levels were measured in the sera obtained from mice 24 h after the third gavage with saline/DMSO (Control Saline); 3 mg/kg/day Compound C5; Compound C13 or the EP3 antagonist L-798106. […] 12 B for Urea.
D. Kidney function parameters: Creatinine (FIG. 15A) and Urea (FIG. 15B) were measured in sera obtained from mice, 24 h after injection of either Saline/DMSO (Control Saline), Compound C5 or L-798106.

[3] = system: db/db mice; assay: intraperitoneal glucose tolerance test (IPGTT)
Experimental: Lepr^db/db homozygotes (db/db) and heterozygote Lepr^db/+ (wild type) mice were treated daily with 2.5 mg/kg/day oral administration of the Vehicle, the commercial EP3 antagonist L-798106 and the compounds C5 and C13 for 8 weeks, as described in Example 9. A glucose tolerance test (Intraperitoneal glucose tolerance test, IPGTT) was performed following four weeks and eight weeks of the onset of treatment, as follows. Glucose (1 g/kg) was injected following 8 hours of fasting, and blood glucose was measured at baseline and at 30-, 60-, 90- and 120-minutes post glucose administration.
Heterozygote (wild type) and diabetic db/db mice were treated daily with the Vehicle, L-798106 and the compounds C17 and C20 for 8 weeks, essentially as described in Example 9. A glucose tolerance test (IPGTT) was performed essentially as described in Example 10.

[4] = system: db/db mice; assay: Insulin Tolerance Test (ITT); conditions: 8 weeks oral treatment; for glucose levels after insulin injection (insulin sensitivity), db/db mice: 0.75 U/kg insulin, all time points, vs vehicle
Experimental: An Insulin Tolerance Test (ITT) was conducted to determine the effect of the test compounds on insulin resistance, following oral administration of Vehicle or the tested compounds as described in Example 9. To this end, the different treated groups were further subjected to a subsequent 5-hour fast and then injected with 0.75 U/kg insulin. Blood glucose was measured at the time of insulin injection (baseline level) and at the indicated time intervals thereafter. Blood glucose levels and AUC of the wild-type mice are presented in FIGS. 19A-19B respectively, and blood glucose levels and AUC of the db/db mice are presented in FIGS. 19C-19D respectively. The different test groups as presented in FIGS. 19A-19D are represented as described in Example 9.
To determine the effect of the C17 and C20 compounds on insulin resistance, an ITT was conducted essentially as described in Example 11. Blood glucose levels and AUC of the wild-type mice are presented in FIGS. 27A-27B respectively (n=5-15), and blood glucose levels and AUC of the db/db mice are presented in FIGS. 27C-27D respectively (n=5-10). The different test groups as presented in FIGS. 27A-27D are represented as described in Example 14.

[5] = system: db/db mice; assay: fasting blood glucose (FBG) in db/db and control mice
Source text: Fasting blood glucose (FBG) concentrations in each of the treated groups were also compared following 4- and 8-weeks treatment as described in Example 9. Results for the 4-weeks treatment of the control mice and the db/db mice are presented in FIGS. 20A-20B respectively and for the 8-weeks treatment of the control mice and the db/db mice are presented in FIGS. 20C-20D, respectively; each treatment is graphically represented as described in Example 9.
FBG concentrations. FBG concentrations in each of the treated groups, vehicle, L-798106, C17 and C20, was compared following 4- and 8-weeks treatment essentially as described in Example 11. Results for the 4-weeks treatment of the control mice and the db/db mice are presented in FIGS. 29A-29B respectively and for the 8-weeks treatment of the control mice and the db/db mice are presented in FIGS. 29C-29D, in which, each treatment is graphically represented as described in Example 14, The numbers of tested mice are as follows: control mice (n=10-15), db/db mice (n=10).

[6] = blood insulin concentrations by serum C-peptide ELISA; conditions: 8 weeks oral treatment; vs vehicle-treated diabetic mice
Experimental: At the end of the 8 week-long period of treatment as described in Example 9, mice were sacrificed and blood samples were collected, and analyzed for different parameters as detailed below.
Blood insulin concentrations.
Blood insulin concentrations. Following 8 weeks of treatment, blood samples were collected and the levels of insulin in the collected sera were assessed essentially as described in Example 12. The results are presented in FIG. 28, in which the different test groups as presented in FIG. 28 are represented as described in Example 14 and “ns” indicates non-significant differences. The numbers of tested mice are as follows: vehicle (n=10), L-798106 (n=10), C17 (n=5), C20 (n=5).

[7] = oral 3 mg/kg/day, 24 h after third gavage
[8] = 8 weeks oral 2.5 mg/kg/day, glucose 1 g/kg, all time points, vs vehicle
[9] = 4 weeks of treatment, vs vehicle

SMILES	alanine transaminase (ALT) ([1]; IP, 24 h after injection)	albumin ([1]; IP, 24 h after injection)	aspartate transaminase (AST) ([1]; IP, 24 h after injection)	alanine transaminase (ALT) [1, 7]	albumin [1, 7]	aspartate transaminase (AST) [1, 7]	Creatinine ([2]; IP, 24 h after injection)	Urea ([2]; IP, 24 h after injection)	Creatinine [2, 7]	Urea [2, 7]	hyperglycemia in IPGTT, db/db mice [3, 8]	hyperglycemia in IPGTT, db/db mice ([3]; four weeks of treatment)	glucose levels after insulin injection (insulin sensitivity), db/db mice [4]	FBG in db/db mice [5, 9]	FBG in control mice ([5]; 8 weeks of treatment)	blood insulin levels (serum C-peptide) in diabetic mice [6]	FBG in db/db mice ([5]; 8 weeks of treatment)	hyperglycemia in IPGTT, db/db mice ([3]; 8 weeks oral 2.5 mg/kg/day, glucose 1 g/kg, all time points, vs vehicle, 2.5 mg/kg/day)	baseline glucose levels in ITT ([4]; 5-hour fast)
CC[C@H](C)c1ccc(S(=O)(=O)Nc2ccccc2C(=O)N2C[C@@H](C)O[C@@H](C)C2)cc1 [Compound C5, 4-((S)-sec-butyl)-N-(2-((2S,6R)-2,6-dimethylmorpholine-4-carbonyl)phenyl)benzenesulfonamide]	no statistically significant differences	no statistically significant differences	no statistically significant differences	no statistically significant differences	no statistically significant differences	no statistically significant differences	no statistically significant differences	no statistically significant differences	No statistically significant differences	No statistically significant differences	significantly alleviated hyperglycemia	reduction of hyperglycemia could already be seen	Improve Insulin Sensitivity	significant decrease in FBG	decrease in FBG in the control mice, although to a much lesser extent	the differences did not reach statistical significance	–	–	–
CC[C@@H]1CC[C@H](C)N1C(=O)c1cccc(NS(=O)(=O)c2ccc(C)c(F)c2)c1 [Compound C13, N-(3-((2R,5S)-2-ethyl-5-methylpyrrolidine-1-carbonyl)phenyl)-3-fluoro-4-methylbenzenesulfonamide]	lower concentrations of alanine transaminase	no statistically significant differences	no statistically significant differences	no statistically significant differences	no statistically significant differences	no statistically significant differences	p-value >0.05	p-value >0.05	No statistically significant differences	No statistically significant differences	significantly alleviated hyperglycemia	reduction of hyperglycemia could already be seen	Improve Insulin Sensitivity	significant decrease in FBG	decrease in FBG in the control mice, although to a much lesser extent	the differences did not reach statistical significance	significantly more pronounced	–	–
COc1ccc(Br)cc1S(=O)(=O)NC(=O)/C=C/c1ccccc1Cc1ccc2ccccc2c1 [Compound L-798106, (2E)-N-[(5-bromo-2-methoxyphenyl)sulfonyl]-3-[2-(2-naphthalenylmethyl)phenyl]-2-propenamide, reference compound]	lower concentrations of alanine transaminase	no statistically significant differences	no statistically significant differences	no statistically significant differences	no statistically significant differences	no statistically significant differences	no statistically significant differences	no statistically significant differences	No statistically significant differences	No statistically significant differences	–	reduction of hyperglycemia could already be seen	significant decrease in glucose levels	significant decrease in FBG	decrease in FBG in the control mice, although to a much lesser extent	the differences did not reach statistical significance	significantly more pronounced	significantly alleviated hyperglycemia; also recorded: appeared to be statistically more significant	reduced baseline glucose levels
